The source of these data is patent US20230138400A1, “METHODS AND PHARMACEUTICAL COMPOSITIONS FOR REPROGRAMING IMMUNE ENVIRONMENT IN A SUBJECT IN NEED THEREOF” (INSERM (INSTITUT NATIONAL DE LA SANTE ET DE LA RECHERCHE …, priority 2016, published 2023).

Assay [1] has as its system Unpolarized Th0 (from naive CD4 T cells of C57BL/6 mice). As to the kind of experiment: Unpolarized Th0 cells cultured with DDA, flow cytometry. It counts as cell-based, mouse. The procedure:
FIGS. 3A-D. Unpolarized Th0 (prepared from naive CD4 T cells isolated from the spleen of C57BL/6 mice were cultivated in presence of anti-CD3, anti-CD28 and recombinant IL-2 as indicated in the “Materials and methods” section”) and with gradual concentration of DDA added at day 0 of culture (condition #1) or Day 4 of culture (condition #2). At the end, for each condition, the percentage of Th1 (CD4+Tbet+IFNg+) (A,B) and Treg CD4+Foxp3+IL10+ (C,D) was measured by flow cytometry.
Immune cell culture. Isolated CD4+ or CD8+ T cells were cultures in 96-well flat bottom plates (0.25×10^6 cells per wells) in 0.25 ml of complete RPMI 1640 media (10% FBS, 1% penicillin/Streptomycin, 1% sodium pyruvate, 1% HEPES and 50 μM b-mercaptoethanol) in the presence of 10 μg/ml plate-bound anti-mouse CD3 (2C11) and 2 μg/ml soluble α-CD28 (LEAF) in addition to 50 ng/ml of recombinant IL-2 (e-bioscience). DDA (synthesized by Affichem) diluted in the solvent vehicle was added at increasing concentration (0-1-10-100 and 1000 nM). […] After 5 days of culture, cells were collected and analyzed by flow cytometry. To investigate the impact of DDA on polarization of CD4 or CD8 naive T cells, DDA or the solvent vehicle was added at the beginning of culture at Day 0 or at Day 4 and cells was analyzed at day 5 by flow cytometry.

Assay [2] relates to SKMEL-28 cells. As to the kind of experiment: Exosome production of SKMEL-28 cells (shCTRL or shLXRbeta) treated with DDA. The format is cell-based, human. The note with it: for production of exosomes: 2.5 μM DDA for 24 h. The procedure:
Obtention of LXRβ knock-down cells. SKMEL28 cells ([…]) or E0771 (3×10^6) were transfected with the Neon Transfection System (Invitrogen) with 1 μg or 3 μg of small hairpin RNA targeting human LXRβ or mouse LXRβ (two different shRNA were used) or with 1 μg control ShRNA. Transfected cells were selected in multiwell plates (10 000 cells/well) with puromycin ranging from 1-10 μg/ml. Two clones transfected with two different shRNA against LXRβ with LXRβ expression knocked-down by 70% and 80% (for SKMEL28) and by 90% and 95% (for E0771) and two control clones were selected.
Exosome quantification. 1) Protein content in exosomes was quantified by the spectrophotometric method of Lowry in presence of 0.1% w/v sodium dodecyl […]. 2) Exosomes were also quantified by flow cytometry following labeling with the fluorescent lipid Bodipy-ceramide (Invitrogen-Molecular Probes) for 1 hour at 37° C. Excess of Bodipy-ceramide was removed by filtration and washing through the 1000 kDa Vivaspin filter and exosomes were quantitated by FACS. 3) Numeration of exosomes vesicles was performed either by nano tracking analysis (Nanosight equipment, Malvern, France) or by TRPS (tunable resistive pulse sensing) technology (qNano equipment, Izon, UK).

Assay [3] relates to SKMEL-28 cells. In words: Composition of exosomes from SKMEL-28 cells (shCTRL or shLXRbeta) treated with DDA. The format is cell-based, human. As for the experimental part: Exosome characterization. By flow cytometry: (tetraspanin analysis), exosomes (10 μg) were bound onto 10 μl of latex beads (Interfacial Dynamics/Invitrogen) in 200 μl PBS for 1 hour at 25° C. with gentle periodical shaking. Free sites on latex beads were saturated with 100 μl vesicle-free FBS for 30 min at 25° C. Beads with bound exosomes were centrifuged for 5 min at 5000 rpm, washed in 200 μl PBS, and diluted in 100 μl FACS buffer. Specific primary antibody or control isotype (1:50) were added and incubated at room temperature for 30 min. After centrifugation and washing, secondary antibody (1:100) was added and incubated for 30 min at room temperature. Beads with bound antibody-labelled exosomes were diluted in 1 ml FACS buffer and analyzed by flow cytometry (FACScalibur, Becton-Dickinson). By western-blot analysis: 5-20 μg exosomes were directly diluted in sample buffer and denaturated by heating at 60° C. for 10 min. Equal amounts of proteins were deposited in each well and proteins were resolved in SDS-PAGE and transferred onto PVDF membranes, saturated with 5% w/v non-fat milk in TBS-Tween 0.1%. […] Revelation from immunoblotting was performed by enhanced chemiluminescence and analysed by ChemiDoc imager (BioRad) or by Pxi imager (Ozyme). By sucrose gradient: the density of exosomes was measured through a sucrose gradient. […]

As to `CC(C)CCCC(C)[C@H]1CCC2C3C[C@@H](NCCc4cnc[nH]4)[C@@]4(O)C[C@@H](O)CC[C@]4(C)C3CC[C@@]21C` (stereo partly shown) [DDA, 5a-hydroxy-6b-[2-(1H-imidazol-4-yl)ethylamino]cholestan-3b-ol], the “Th0 into Th1 differentiation” value in assay [1] (unpolarized Th0, DDA at day 0 or day 4 (FIG. 3)) is “does not activated”. Also, the “differentiation of Th0 into Treg phenotype” value in assay [1] (unpolarized Th0, DDA at day 0 or day 4, more impressive at day 4 (FIG. 3)) is given as “inhibits”. Moreover, the production of exosomes result is “about 2 fold” in assay [2] (SKMEL-28-shCTRL cells) and “does not stimulate” in assay [2] (SKMEL-28-shLXRbeta cells). Further, in assay [2] (SKMEL-28 cells, data not shown), the “exosome secretion from human melanoma cells” value was “stimulates exosome secretion”. The entries for the “exosome content of rab27a and b, HSP70, Melan A, tyrosinase, TRP2, calreticuline” value in assay [3] (exosomes from SKMEL-28-shCTRL cells) and in assay [3] (exosomes from SKMEL-28-shLXRbeta cells) were “enriched” and “not enriched”, respectively.
